Source: paper PMC7827481, “Development of A Continuous Fluorescence-Based Assay for N-Terminal Acetyltransferase D” (International Journal of Molecular Sciences, 2021)
Each block holds one compound with its values, some of them ahead of it.

Tests used:
[1] = target: T1, N-terminal acetyltransferase D (NatD) (Homo sapiens, UniProt Q86UY6); assay: ThioGlo4 fluorescence acetyltransferase assay; assay type: biochemical
T1 construct: gene NAA40; full-length human NatD, untagged

[2] = target: T1, N-terminal acetyltransferase D (NatD); assay: ThioGlo4 fluorescence acetyltransferase assay; confirmed by MALDI-MS (IC50 […]); assay type: biochemical
[3] = target: T1, N-terminal acetyltransferase D (NatD); assay: MALDI-MS acetylation inhibition at […] (also […], […] in fluorescence assay); assay type: biochemical
[4] = target: T1, N-terminal acetyltransferase D (NatD); assay: ThioGlo4 fluorescence acetyltransferase assay; confirmed by MALDI-MS ([…] at […]); assay type: biochemical
[5] = tested on: CC(=O)SCCNC(=O)CCNC(=O)[C@H](O)C(C)(C)COP(=O)(O)OP(=O)(O)OC[C@H]1O[C@@H](n2cnc3c(N)ncnc32)[C@H](O)[C@@H]1OP(=O)(O)O; assay: purified protein; conditions: AcCoA binding site

IC50 [1]: 38 ± 2 µM
Compound: C[C@H](NC(=O)/C(C#N)=C/c1ccc(O)c(O)c1)c1ccccc1 [AG 835]

IC50 [2]: 1.5 ± 0.1 µM
Compound: O=C(O)C1=CC(=C(c2ccc(O)c(C(=O)O)c2)c2ccc(O)c(C(=O)O)c2)C=CC1=O [P1401K09, aurintricarboxylic acid]

Compound: Nc1c(S(=O)(=O)O)cc(Nc2ccc(Nc3nc(Cl)nc(Nc4cccc(S(=O)(=O)O)c4)n3)c(S(=O)(=O)O)c2)c2c1C(=O)c1ccccc1C2=O [P1404C10, Reactive blue 2]
inhibition at 10 µM [3]: 100%

IC50 [4]: 63 ± 4 µM
Compound: C[C@@H](NC(=O)/C(C#N)=C/c1ccc(O)c(O)c1)c1ccccc1 [P1404L15, tyrphostin B44(-)]

Compound: N-terminal acetyltransferase D (NatD) (Homo sapiens)
Km [5]: 0.5 ± 0.06 µM
